#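 All cell lines were grown in 96-well plates and treated with compound for 48 hours. At the GI50, growth is halved. TGI denotes the concentration required for complete inhibition of growth.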
# Columns and labels:
# Test in all cases: inhibition of tumour cell growth, NCI panel, 48 h
# SK-MEL-5 melanoma = system: SK-MEL-5 melanoma
# NCI-H522 lung = system: NCI-H522 lung
# HL-60(TB) leukemia = system: HL-60(TB) leukemia
# A549 NSCLC = system: A549 NSCLC
# A498 renal = system: A498 renal
# HS 578T breast = system: HS 578T breast
# HOP-92 NSCLC = system: HOP-92 NSCLC
# OVCAR-4 ovarian = system: OVCAR-4 ovarian
# SK-OV-3 ovarian = system: SK-OV-3 ovarian
# RXF 393 renal = system: RXF 393 renal
# U251 CNS = system: U251 CNS
# HCT-116 colon = system: HCT-116 colon
# CAKI-1 renal = system: CAKI-1 renal
# MOLT-4 leukemia = system: MOLT-4 leukemia
# K-562 leukemia = system: K-562 leukemia
# UACC-257 melanoma = system: UACC-257 melanoma
# UO-31 renal = system: UO-31 renal
# SN12C renal = system: SN12C renal
# SNB-75 CNS = system: SNB-75 CNS
# BT-549 breast = system: BT-549 breast
# MDA-MB-231 breast = system: MDA-MB-231 breast
# PC-3 prostate = system: PC-3 prostate
# SR leukemia = system: SR leukemia
# OVCAR-3 ovarian = system: OVCAR-3 ovarian
# 786-0 renal = system: 786-0 renal
# NCI-H226 lung = system: NCI-H226 lung
# UACC-62 melanoma = system: UACC-62 melanoma
# SF-268 CNS = system: SF-268 CNS
# LOX IMVI melanoma = system: LOX IMVI melanoma
# OVCAR-5 ovarian = system: OVCAR-5 ovarian
# DU-145 prostate = system: DU-145 prostate
# IGROV1 ovarian = system: IGROV1 ovarian
# NCI/ADR-RES ovarian = system: NCI/ADR-RES ovarian
# M14 melanoma = system: M14 melanoma
# SW-620 colon = system: SW-620 colon
# TK-10 renal = system: TK-10 renal
# NCI-H460 lung = system: NCI-H460 lung
# HT29 colon = system: HT29 colon
# SF-539 CNS = system: SF-539 CNS
# CCRF-CEM leukemia = system: CCRF-CEM leukemia
# SNB-19 CNS = system: SNB-19 CNS
# RPMI-8226 leukemia = system: RPMI-8226 leukemia
# MALME-3M melanoma = system: MALME-3M melanoma
# T-47D breast = system: T-47D breast
# HOP-62 NSCLC = system: HOP-62 NSCLC
# COLO 205 colon = system: COLO 205 colon
# MCF7 breast = system: MCF7 breast
# OVCAR-8 ovarian = system: OVCAR-8 ovarian
# EKVX NSCLC = system: EKVX NSCLC
# KM12 colon = system: KM12 colon
# HCC-2998 colon = system: HCC-2998 colon
# HCT-15 colon = system: HCT-15 colon
# SF-295 CNS = system: SF-295 CNS
# SK-MEL-28 melanoma = system: SK-MEL-28 melanoma
# MDA-MB-435 = system: MDA-MB-435
# NCI-H23 lung = system: NCI-H23 lung
# ACHN renal = system: ACHN renal
# SK-MEL-2 melanoma = system: SK-MEL-2 melanoma
smiles,measurement,setting,value
CC1=C(C(=O)Nc2ccc3[nH]ncc3c2)C(c2ccc(F)cc2)N=C(c2ccc(C(F)(F)F)nc2)N1 (stereo unspecified),GI50,SK-MEL-5 melanoma,7.45 µM
same,TGI,SK-MEL-5 melanoma,> 25 µM
same,GI50,NCI-H522 lung,7.06 µM
same,TGI,NCI-H522 lung,> 25 µM
same,GI50,HL-60(TB) leukemia,6.67 µM
same,TGI,HL-60(TB) leukemia,> 25 µM
same,GI50,A549 NSCLC,13.4 µM
same,TGI,A549 NSCLC,> 25 µM
same,GI50,A498 renal,2.23 µM
same,TGI,A498 renal,9.32 µM
same,GI50,HS 578T breast,5.05 µM
same,TGI,HS 578T breast,20.2 µM
same,GI50,HOP-92 NSCLC,0.548 µM
same,TGI,HOP-92 NSCLC,7.6 µM
same,GI50,OVCAR-4 ovarian,12.4 µM
same,TGI,OVCAR-4 ovarian,> 25 µM
same,GI50,SK-OV-3 ovarian,> 25 µM
same,TGI,SK-OV-3 ovarian,> 25 µM
same,GI50,RXF 393 renal,4.31 µM
same,TGI,RXF 393 renal,> 23.5 µM
same,GI50,U251 CNS,17.1 µM
same,TGI,U251 CNS,> 25 µM
same,GI50,HCT-116 colon,13.2 µM
same,TGI,HCT-116 colon,> 25 µM
same,GI50,CAKI-1 renal,11.9 µM
same,TGI,CAKI-1 renal,> 25 µM
same,GI50,MOLT-4 leukemia,11.9 µM
same,TGI,MOLT-4 leukemia,> 25 µM
same,GI50,K-562 leukemia,10 µM
same,TGI,K-562 leukemia,> 25 µM
same,GI50,UACC-257 melanoma,15.7 µM
same,TGI,UACC-257 melanoma,> 25 µM
same,GI50,UO-31 renal,3.35 µM
same,TGI,UO-31 renal,24.4 µM
same,GI50,SN12C renal,> 22.9 µM
same,TGI,SN12C renal,> 25 µM
same,GI50,SNB-75 CNS,2.4 µM
same,TGI,SNB-75 CNS,15.9 µM
same,GI50,BT-549 breast,5.28 µM
same,TGI,BT-549 breast,18.2 µM
same,GI50,MDA-MB-231 breast,10.1 µM
same,TGI,MDA-MB-231 breast,> 25 µM
same,GI50,PC-3 prostate,13.1 µM
same,TGI,PC-3 prostate,> 25 µM
same,GI50,SR leukemia,6.43 µM
same,TGI,SR leukemia,> 25 µM
same,GI50,OVCAR-3 ovarian,9.07 µM
same,TGI,OVCAR-3 ovarian,> 25 µM
same,GI50,786-0 renal,10.8 µM
same,TGI,786-0 renal,> 25 µM
same,GI50,NCI-H226 lung,3.99 µM
same,TGI,NCI-H226 lung,> 25 µM
same,GI50,UACC-62 melanoma,10.1 µM
same,TGI,UACC-62 melanoma,> 25 µM
same,GI50,SF-268 CNS,10.7 µM
same,TGI,SF-268 CNS,> 25 µM
same,GI50,LOX IMVI melanoma,8.88 µM
same,TGI,LOX IMVI melanoma,> 25 µM
same,GI50,OVCAR-5 ovarian,> 25 µM
same,TGI,OVCAR-5 ovarian,> 25 µM
same,GI50,DU-145 prostate,> 25 µM
same,TGI,DU-145 prostate,> 25 µM
same,GI50,IGROV1 ovarian,5.66 µM
same,TGI,IGROV1 ovarian,> 25 µM
same,GI50,NCI/ADR-RES ovarian,18.5 µM
same,TGI,NCI/ADR-RES ovarian,> 25 µM
same,GI50,M14 melanoma,10.4 µM
same,TGI,M14 melanoma,> 25 µM
same,GI50,SW-620 colon,11.6 µM
same,TGI,SW-620 colon,> 25 µM
same,GI50,TK-10 renal,> 24.1 µM
same,TGI,TK-10 renal,> 25 µM
same,GI50,NCI-H460 lung,11.8 µM
same,TGI,NCI-H460 lung,> 25 µM
same,GI50,HT29 colon,11.5 µM
same,TGI,HT29 colon,> 25 µM
same,GI50,SF-539 CNS,7.61 µM
same,TGI,SF-539 CNS,> 25 µM
same,GI50,CCRF-CEM leukemia,17 µM
same,TGI,CCRF-CEM leukemia,> 25 µM
same,GI50,SNB-19 CNS,> 23.6 µM
same,TGI,SNB-19 CNS,> 25 µM
same,GI50,RPMI-8226 leukemia,20 µM
same,TGI,RPMI-8226 leukemia,> 25 µM
same,GI50,MALME-3M melanoma,> 16.5 µM
same,TGI,MALME-3M melanoma,> 25 µM
same,GI50,T-47D breast,> 20 µM
same,TGI,T-47D breast,> 25 µM
same,GI50,HOP-62 NSCLC,10.1 µM
same,TGI,HOP-62 NSCLC,> 25 µM
same,GI50,COLO 205 colon,> 25 µM
same,TGI,COLO 205 colon,> 25 µM
same,GI50,MCF7 breast,7.71 µM
same,TGI,MCF7 breast,> 25 µM
same,GI50,OVCAR-8 ovarian,20.2 µM
same,TGI,OVCAR-8 ovarian,> 25 µM
same,GI50,EKVX NSCLC,6.19 µM
same,TGI,EKVX NSCLC,> 25 µM
same,GI50,KM12 colon,16.3 µM
same,TGI,KM12 colon,> 25 µM
same,GI50,HCC-2998 colon,> 25 µM
same,TGI,HCC-2998 colon,> 25 µM
same,GI50,HCT-15 colon,16.2 µM
same,TGI,HCT-15 colon,> 25 µM
same,GI50,SF-295 CNS,9.81 µM
same,TGI,SF-295 CNS,> 25 µM
same,GI50,SK-MEL-28 melanoma,> 19.9 µM
same,TGI,SK-MEL-28 melanoma,> 25 µM
same,GI50,MDA-MB-435,4.97 µM
same,TGI,MDA-MB-435,12 µM
same,GI50,NCI-H23 lung,12.8 µM
same,TGI,NCI-H23 lung,> 25 µM
same,GI50,ACHN renal,13.3 µM
same,TGI,ACHN renal,> 25 µM
same,GI50,SK-MEL-2 melanoma,9.49 µM
same,TGI,SK-MEL-2 melanoma,> 25 µM
